Data as given in US20090215650A1, “SUBSTRATES WITH STABLE SURFACE CHEMISTRY FOR BIOLOGICAL MEMBRANE ARRAYS AND METHOD FOR FABRICATING THEREOF” (priority 2002, published 2009).

Key:
[1] = target: Neurotensin receptor subtype I (human, NTR1) (Homo sapiens, UniProt P30989); assay: BT-NT binding to NTR1 arrays on coated glass slides, competition with unlabeled neurotensin; conditions: 2 nM BT-NT; for binding specificity of BT-NT: competition with 4 μM unlabeled neurotensin
Description: Neurotensin receptor subtype I (human, NTR1) was purchased from Perkin Elmer Life Sciences (Boston, Mass.) and was received as a membrane associated suspension in a buffer. Printing was carried out using a quill-pin printer (Cartesian Technologies Model PS 5000) equipped with software for programmable aspiration and dispensing. After printing the arrays were incubated in a humid chamber at room temperature for one hour, and then used for ligand binding experiments. Two different binding solutions, 2 nM BT-NT in binding buffer in either the absence or presence of neurotensin, were used to examine the total binding of fluorescently labeled neurotensin (2 nM BT-NT), and the specific inhibition of the binding of BT-NT in the presence of 4 μM unlabeled neurotensin. The binding buffer contained 50 mM Tris-HCl, pH 7.4, 10 mM MgCl2, 1 mM EDTA, 0.1% BSA. The incubation time for binding was one hour. After incubation, the slides were rinsed, dried, and examined using a Genipix scanner.
Glass slides were coated by incubating the slide with a 3 ml solution containing 1 mg/ml polymer (poly-lysine, 46 kDa, or polyethyleneimine, 50 kDa) in 0.1×PBS buffer for 30 minutes at room temperature, followed by rinsing with water and drying under nitrogen. […] Using a Telechem quill pin CMP5, we fabricated GPCR arrays.
Neurotensin receptor subtype 1 (human, NTR1) was purchased from Perkin Elmer Life Sciences (Boston, Mass.) and was received as a membrane associated suspension in a buffer. Printing was carried out using a quill-pin printer (Cartesian Technologies Model PS 5000) equipped with software for programmable aspiration and dispensing. After printing the arrays were incubated in a humid chamber at room temperature for one hour, and then used for ligand binding experiments. […] After incubation, the slides were rinsed, dried, and imaged in a fluorescence scanner. […]

[2] = target: streptavidin (Streptomyces avidinii, UniProt P22629); assay: Binding of cy3-streptavidin to biotin-x-DHPE lipid arrays in presence of BSA; conditions: BSA 0.01%-1%; DPPC/DMPC/2% biotin-x-DHPE arrays on GAPS slide
Description: Seven 5×5 arrays of DPPC/DMPC/2% biotin-x-DHPE were printed onto a single Corning GAPS slide (data not shown). After incubation 3 sets of lipid arrays were pre-incubated with TR-BSA before the addition of Cy3-streptavidin. A second set of 3 arrays was incubated with TR-BSA together with cy3-streptavidin, while one array was covered with a solution of cy3-streptavidin. After 30 minutes the slides were rinsed, dried and imaged. The cy5 channel signal was used to monitor the adsorption of TR-BSA, and the cy3 channel signal was used to monitor the binding of cy3-streptavidin.

[3] = two reactive surfaces (epoxy silane, thiol-silane)

Chain of Neurotensin receptor subtype I (human, NTR1) (P30989 whole entry): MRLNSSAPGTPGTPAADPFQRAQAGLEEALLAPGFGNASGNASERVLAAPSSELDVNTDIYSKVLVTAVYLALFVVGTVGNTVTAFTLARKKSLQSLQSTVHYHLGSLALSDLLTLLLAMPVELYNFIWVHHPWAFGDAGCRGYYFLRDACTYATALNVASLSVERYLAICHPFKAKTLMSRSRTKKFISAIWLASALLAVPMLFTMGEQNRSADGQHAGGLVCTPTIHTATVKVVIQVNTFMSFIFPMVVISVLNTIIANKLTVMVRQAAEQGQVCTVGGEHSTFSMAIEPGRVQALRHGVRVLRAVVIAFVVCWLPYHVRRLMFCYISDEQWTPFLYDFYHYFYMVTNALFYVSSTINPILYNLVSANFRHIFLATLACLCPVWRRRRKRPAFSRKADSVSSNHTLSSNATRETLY
Chain of streptavidin (P22629 25-183, species assumed): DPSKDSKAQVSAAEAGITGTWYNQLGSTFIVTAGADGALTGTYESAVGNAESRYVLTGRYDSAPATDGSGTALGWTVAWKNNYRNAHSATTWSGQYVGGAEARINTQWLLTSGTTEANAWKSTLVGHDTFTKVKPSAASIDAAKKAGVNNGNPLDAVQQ

| Substance | binding specificity of BT-NT ([1]; poly-lysine and polyethyleneimine surfaces (both)) [%] | binding specificity of BT-NT [1, 3] | total binding signal [1, 3] | effect on background level [2] | effect on binding specificity of cy3-streptavidin [2] |
| --- | --- | --- | --- | --- | --- |
| Bodipy-TMR-neurotensin [BT-NT] | ~90 | 75-90% | relatively low | – | – |
| bovine serum albumin [BSA] | – | – | – | reduces the background level in most cases | does not significantly decrease the binding specificity |
